Experiments:
Format in all cases: in vivo
[1] = test system: Arabidopsis thaliana T1 plants; test: sulfentrazone tolerance of transgenic Arabidopsis thaliana T1 plants (spray, grade of pesticide damage); details: for The grade of pesticide: grade 0 / The grade of pesticide: grade 1 / The grade of pesticide: grade 2 / The grade of pesticide: grade 3: 7 DAT, number of plants of 24 per genotype, grades
From the text: (§1) The transformed Arabidopsis thaliana T1 plants were initially selected using glufosinate herbicide. The Arabidopsis thaliana T1 plants (PPO1A) into which the PPO1A nucleotide sequence was introduced, the Arabidopsis thaliana T1 plants (PPO2A) into which the PPO2A nucleotide sequence was introduced, the Arabidopsis thaliana T1 plants (PPO3A) into which the PPO3A nucleotide sequence was introduced, the Arabidopsis thaliana T1 plants (PPO4A) into which the PPO4A nucleotide sequence was introduced, the Arabidopsis thaliana T1 plants (PPO5A) into which the PPO5A nucleotide sequence was introduced, the Arabidopsis thaliana T1 plants (PPO6A) into which the PPO6A nucleotide sequence was introduced, the Arabidopsis thaliana T1 plants (PPO7A) into which the PPO7A nucleotide sequence was introduced, the Arabidopsis thaliana T1 plants (PPO8A) into which the PPO8A nucleotide sequence was introduced, the Arabidopsis thaliana T1 plants (PPO9A) into which the PPO9A nucleotide sequence was introduced, the Arabidopsis thaliana T1 plants (PPO10A) into which the […] nucleotide sequence was introduced, the Arabidopsis thaliana T1 plants (PPO11A) into which the PPO11A nucleotide sequence was introduced, the Arabidopsis thaliana T1 plants (PPO12A) into which the PPO12A nucleotide sequence was introduced, the Arabidopsis thaliana T1 plants (PPO13A) into which the PPO13A nucleotide sequence was introduced, the Arabidopsis thaliana T1 plants (PPO14A) into which the PPO14A nucleotide sequence was introduced, the Arabidopsis thaliana T1 plants (PPO-ATA) into which the PPO-ATA nucleotide sequence was introduced, the Arabidopsis thaliana T1 plants (PPO-APA) into which the PPO-APA nucleotide sequence was introduced, the Arabidopsis thaliana T1 plants (control vector) into which the control vector was introduced, and the wild-type Arabidopsis thaliana plants (CK) (with 24 plants being included in each genotype) (18 days after sowing) were sprayed with oxyfluorfen at three concentrations (180 g ai/ha (one-fold field concentration, 1×), 720 g ai/ha (four-fold field concentration, 4×), and 0 g ai/ha (water, 0×)), saflufenacil at three concentrations (25 g ai/ha (one-fold field concentration, 1×), 100 g ai/ha (four-fold field concentration, 4×), and 0 g ai/ha (water, 0×)), flumioxazin at three concentrations (60 g ai/ha (one-fold field concentration, 1×), 240 g ai/ha (four-fold field concentration, 4×), and 0 g ai/ha (water, 0×), and sulfentrazone at three concentrations (450 g ai/ha (one-fold field concentration, 1×), 900 g ai/ha (two-fold field concentration, 2×), and 0 g ai/ha (water, 0×) to determine the tolerance of Arabidopsis thaliana to the herbicides. After 7 days of spraying (7 DAT), the damage level of each plant caused by the herbicide was evaluated according to the average of the damage levels (%) of plants (the average of the damage levels (%) of plants=the injured leaf area/the total leaf area×[…]), i.e., the grade of pesticide damage: grade 0 means that the growth status of plants is essentially consistent with those sprayed with the blank solvent (water); grade 1 means that the average of the damage levels of plants is less than 10%; grade 2 means that the average of the damage levels of plants is greater than […]; and grade 3 means that the average of the damage levels of plants is 100%. The plants having a growth status falling within grades 0 and 1 are classified as highly resistant plants; those having a growth status falling within grade 2 are classified as poorly resistant plants; and those having a growth status falling within grade 3 are classified as non-resistant plants.

[2] = test system: Arabidopsis thaliana T1 plants; test: flumioxazin tolerance of transgenic Arabidopsis thaliana T1 plants (spray, grade of pesticide damage); details: for The grade of pesticide damage/plant: grade 0 / The grade of pesticide damage/plant: grade 1 / The grade of pesticide damage/plant: grade 2 / The grade of pesticide damage/plant: grade 3: 7 DAT, number of plants of 24 per genotype, grades
From the text: as §1

[3] = test system: Arabidopsis thaliana T1 plants; test: saflufenacil tolerance of transgenic Arabidopsis thaliana T1 plants (spray, grade of pesticide damage); details: for The grade of pesticide damage/plant: grade 0 / The grade of pesticide damage/plant: grade 1 / The grade of pesticide damage/plant: grade 2 / The grade of pesticide damage/plant: grade 3: 7 DAT, number of plants of 24 per genotype, grades
From the text: as §1

[4] = test system: Arabidopsis thaliana T1 plants; test: oxyfluorfen tolerance of transgenic Arabidopsis thaliana T1 plants (spray, grade of pesticide damage); details: for The grade of pesticide damage/plant: grade 0 / The grade of pesticide damage/plant: grade 1 / The grade of pesticide damage/plant: grade 2 / The grade of pesticide damage/plant: grade 3: 7 DAT, number of plants of 24 per genotype, grades
From the text: as §1

[5] = saflufenacil at four-fold field concentration, of 24 plants

Cc1nn(-c2cc(NS(C)(=O)=O)c(Cl)cc2Cl)c(=O)n1C(F)F [sulfentrazone, N-(2,4-dichloro-5-(4-difluoromethyl-4,5-dihydro-3-methyl-5-oxo-1H-1,2,4-triazole-1-yl)phenyl)methanesulfonamide, reference compound]
effective dose distinguishing sensitive plants from plants having an average level of resistance ([1]; for Arabidopsis thaliana, sulfentrazone herbicide): 450 g ai/ha

C#CCN1C(=O)COc2cc(F)c(N3C(=O)C4=C(CCCC4)C3=O)cc21 [flumioxazin, 2-[7-fluoro-3,4-dihydro-3-oxo-4-(2-propynyl)-2H-1,4-benzoxazin-6-yl]-4,5,6,7-tetrahydro-1H-isoindole-1,3(2H)-dione, reference compound]
effective dose distinguishing sensitive plants from plants having an average level of resistance ([2]; for Arabidopsis thaliana, flumioxazin herbicide): 60 g ai/ha

PPO-ATA: nucleotide sequence encoding Arabidopsis protoporphyrinogen oxidase PPO-AT (SEQ ID NO:46), Arabidopsis thaliana/soybean common codon usage bias [reference compound]
The grade of pesticide damage/plant: grade 0 ([3]; saflufenacil 25 g ai/ha (1×)): 0 plant
The grade of pesticide damage/plant: grade 1 ([3]; saflufenacil 25 g ai/ha (1×)): 0 plant
The grade of pesticide damage/plant: grade 2 ([3]; saflufenacil 25 g ai/ha (1×)): 0 plant
The grade of pesticide damage/plant: grade 3 ([3]; saflufenacil 25 g ai/ha (1×)): 24 plant
The grade of pesticide damage/plant: grade 0 ([3]; saflufenacil 100 g ai/ha (4×)): 0 plant
The grade of pesticide damage/plant: grade 1 ([3]; saflufenacil 100 g ai/ha (4×)): 0 plant
The grade of pesticide damage/plant: grade 2 ([3]; saflufenacil 100 g ai/ha (4×)): 0 plant
The grade of pesticide damage/plant: grade 3 ([3]; saflufenacil 100 g ai/ha (4×)): 24 plant
tolerance to saflufenacil ([3]; saflufenacil at four-fold field concentration (100 g ai/ha)): no tolerance
tolerance to saflufenacil ([3]; saflufenacil at one-fold field concentration (25 g ai/ha)): no tolerance
The grade of pesticide damage/plant: grade 0 ([4]; oxyfluorfen 180 g ai/ha (1×)): 0 plant
The grade of pesticide damage/plant: grade 1 ([4]; oxyfluorfen 180 g ai/ha (1×)): 0 plant
The grade of pesticide damage/plant: grade 2 ([4]; oxyfluorfen 180 g ai/ha (1×)): 8 plant
The grade of pesticide damage/plant: grade 3 ([4]; oxyfluorfen 180 g ai/ha (1×)): 16 plant
The grade of pesticide damage/plant: grade 0 ([4]; oxyfluorfen 720 g ai/ha (4×)): 0 plant
The grade of pesticide damage/plant: grade 1 ([4]; oxyfluorfen 720 g ai/ha (4×)): 0 plant
The grade of pesticide damage/plant: grade 2 ([4]; oxyfluorfen 720 g ai/ha (4×)): 0 plant
The grade of pesticide damage/plant: grade 3 ([4]; oxyfluorfen 720 g ai/ha (4×)): 24 plant
tolerance to oxyfluorfen ([4]; oxyfluorfen at different concentrations (180 and 720 g ai/ha), compared with the control vector and CK): basically no tolerance
The grade of pesticide damage/plant: grade 0 ([2]; flumioxazin 60 g ai/ha (1×)): 0 plant
The grade of pesticide damage/plant: grade 1 ([2]; flumioxazin 60 g ai/ha (1×)): 0 plant
The grade of pesticide damage/plant: grade 2 ([2]; flumioxazin 60 g ai/ha (1×)): 2 plant
The grade of pesticide damage/plant: grade 3 ([2]; flumioxazin 60 g ai/ha (1×)): 22 plant
The grade of pesticide damage/plant: grade 0 ([2]; flumioxazin 240 g ai/ha (4×)): 0 plant
The grade of pesticide damage/plant: grade 1 ([2]; flumioxazin 240 g ai/ha (4×)): 0 plant
The grade of pesticide damage/plant: grade 2 ([2]; flumioxazin 240 g ai/ha (4×)): 0 plant
The grade of pesticide damage/plant: grade 3 ([2]; flumioxazin 240 g ai/ha (4×)): 24 plant
tolerance to flumioxazin ([2]; flumioxazin at different concentrations (60 and 240 g ai/ha)): basically no tolerance
The grade of pesticide: grade 0 ([1]; sulfentrazone 450 g ai/ha (1×)): 0
The grade of pesticide: grade 1 ([1]; sulfentrazone 450 g ai/ha (1×)): 0
The grade of pesticide: grade 2 ([1]; sulfentrazone 450 g ai/ha (1×)): 0
The grade of pesticide: grade 3 ([1]; sulfentrazone 450 g ai/ha (1×)): 24
The grade of pesticide: grade 0 ([1]; sulfentrazone 900 g ai/ha (2×)): 0
The grade of pesticide: grade 1 ([1]; sulfentrazone 900 g ai/ha (2×)): 0
The grade of pesticide: grade 2 ([1]; sulfentrazone 900 g ai/ha (2×)): 0
The grade of pesticide: grade 3 ([1]; sulfentrazone 900 g ai/ha (2×)): 24
tolerance to sulfentrazone ([1]; sulfentrazone at different concentrations (450 and 900 g ai/ha)): no tolerance

CC(C)N(C)S(=O)(=O)NC(=O)c1cc(-n2c(=O)cc(C(F)(F)F)n(C)c2=O)c(F)cc1Cl [saflufenacil, N′-[2-chloro-4-fluoro-5-(3-methyl-2,6-dioxo-4-(trifluoromethyl)-3,6-dihydro-1(2H)-pyrimidine)benzoyl]-N-isopropyl-N-methylsulfamide, reference compound]
effective dose distinguishing sensitive plants from plants having an average level of resistance ([3]; for Arabidopsis thaliana, saflufenacil herbicide): 25 g ai/ha

CCOc1cc(Oc2ccc(C(F)(F)F)cc2Cl)ccc1[N+](=O)[O-] [oxyfluorfen, 2-chloro-1-(3-ethoxy-4-nitrophenoxy)-4-trifluoromethylbenzene, reference compound]
effective dose distinguishing sensitive plants from plants having an average level of resistance ([4]; for Arabidopsis thaliana, oxyfluorfen herbicide): 180 g ai/ha

B1: PPO8A: nucleotide sequence encoding microbial protoporphyrinogen oxidase PPO8 (SEQ ID NO:8), Arabidopsis thaliana/soybean common codon usage bias (nucleic acid)
DNA: ATGTCAAATGAGACACAAGCCAAACAAGCTGAAACGAAACAGACTGAGTCTTCTGTCGTAAGCAAAACGCTGGTGTTGTACTCGTCCGTCGATGGTCAAACCTTAAAGATCATTAATCGTATTAAGCAGACCCTGACAGGAGAAGTTATTGTTTTGAATGTTGATGATAATCCAACTATCGATTTTAGCCTTTATCAGAAGGTCTTGATTGGAGCATCAATCCGGTATGGGAACTTTAGACCGAACATCATAAAGTTTGTTAATCAGCATAAAACACAACTTGACGCGGTGTGCAACGCTTTCTTCGTGGTTTGTCTCACAGCAAGAAAACCAGAGAAAGCTGTTCCTGAAAACAATGCATACATGAAGAAATTTGATCAGCTAAGTCAATGGCAACCTCAGTTCAAGGGAGTATTCGCGGGTGCTTTATTGTATTCACGATACAACTGGTGGCAGACACTTCTCATACAACTAATAATGAAGATGACTGGTGGCAGTACTGACAAAACTCAAGATATTGAGCTTACCGATTGGGAAAAGGTGGATTCTTTCGCACAAGACTTTGCTGCCAGGTGA
modifications: The nucleotide sequence of PPO8A
The grade of pesticide damage/plant: grade 0 ([3]; saflufenacil 25 g ai/ha (1×)): 24 plant
The grade of pesticide damage/plant: grade 1 ([3]; saflufenacil 25 g ai/ha (1×)): 0 plant
The grade of pesticide damage/plant: grade 2 ([3]; saflufenacil 25 g ai/ha (1×)): 0 plant
The grade of pesticide damage/plant: grade 3 ([3]; saflufenacil 25 g ai/ha (1×)): 0 plant
The grade of pesticide damage/plant: grade 0 ([3]; saflufenacil 100 g ai/ha (4×)): 8 plant
The grade of pesticide damage/plant: grade 1 ([3]; saflufenacil 100 g ai/ha (4×)): 14 plant
The grade of pesticide damage/plant: grade 2 ([3]; saflufenacil 100 g ai/ha (4×)): 2 plant
The grade of pesticide damage/plant: grade 3 ([3]; saflufenacil 100 g ai/ha (4×)): 0 plant
plants that exhibited high-resistant tolerance [3, 5]: 22 plants
plants that exhibited moderate- or poor-resistant tolerance [3, 5]: 2 plants
The grade of pesticide damage/plant: grade 0 ([4]; oxyfluorfen 180 g ai/ha (1×)): 24 plant
The grade of pesticide damage/plant: grade 1 ([4]; oxyfluorfen 180 g ai/ha (1×)): 0 plant
The grade of pesticide damage/plant: grade 2 ([4]; oxyfluorfen 180 g ai/ha (1×)): 0 plant
The grade of pesticide damage/plant: grade 3 ([4]; oxyfluorfen 180 g ai/ha (1×)): 0 plant
The grade of pesticide damage/plant: grade 0 ([4]; oxyfluorfen 720 g ai/ha (4×)): 20 plant
The grade of pesticide damage/plant: grade 1 ([4]; oxyfluorfen 720 g ai/ha (4×)): 4 plant
The grade of pesticide damage/plant: grade 2 ([4]; oxyfluorfen 720 g ai/ha (4×)): 0 plant
The grade of pesticide damage/plant: grade 3 ([4]; oxyfluorfen 720 g ai/ha (4×)): 0 plant
The grade of pesticide damage/plant: grade 0 ([2]; flumioxazin 60 g ai/ha (1×)): 24 plant
The grade of pesticide damage/plant: grade 1 ([2]; flumioxazin 60 g ai/ha (1×)): 0 plant
The grade of pesticide damage/plant: grade 2 ([2]; flumioxazin 60 g ai/ha (1×)): 0 plant
The grade of pesticide damage/plant: grade 3 ([2]; flumioxazin 60 g ai/ha (1×)): 0 plant
The grade of pesticide damage/plant: grade 0 ([2]; flumioxazin 240 g ai/ha (4×)): 23 plant
The grade of pesticide damage/plant: grade 1 ([2]; flumioxazin 240 g ai/ha (4×)): 1 plant
The grade of pesticide damage/plant: grade 2 ([2]; flumioxazin 240 g ai/ha (4×)): 0 plant
The grade of pesticide damage/plant: grade 3 ([2]; flumioxazin 240 g ai/ha (4×)): 0 plant
The grade of pesticide: grade 0 ([1]; sulfentrazone 450 g ai/ha (1×)): 24
The grade of pesticide: grade 1 ([1]; sulfentrazone 450 g ai/ha (1×)): 0
The grade of pesticide: grade 2 ([1]; sulfentrazone 450 g ai/ha (1×)): 0
The grade of pesticide: grade 3 ([1]; sulfentrazone 450 g ai/ha (1×)): 0
The grade of pesticide: grade 0 ([1]; sulfentrazone 900 g ai/ha (2×)): 22
The grade of pesticide: grade 1 ([1]; sulfentrazone 900 g ai/ha (2×)): 2
The grade of pesticide: grade 2 ([1]; sulfentrazone 900 g ai/ha (2×)): 0
The grade of pesticide: grade 3 ([1]; sulfentrazone 900 g ai/ha (2×)): 0
